Measured values: ChEMBL document CHEMBL1144604, “Synthesis and biological evaluation of phosphonate derivatives as autotaxin (ATX) inhibitors” (Bioorg Med Chem Lett, 2007)

Key:
Autotaxin (Homo sapiens) [1] = target: Autotaxin (Homo sapiens) (UniProt Q13822); experiment: Inhibition of human recombinant ATX at 1 uM after 16 hrs; values are per cent of control
Autotaxin (Homo sapiens) [2] = target: Autotaxin (Homo sapiens) (UniProt Q13822); experiment: Inhibition of human recombinant ATX at 10 uM after 16 hrs; values are per cent of control
Autotaxin (Homo sapiens) [3] = target: Autotaxin (Homo sapiens) (UniProt Q13822); experiment: Inhibition of human recombinant ATX at 100 uM after 16 hrs; values are per cent of control

Row | SMILES | residual activity (Autotaxin (Homo sapiens) [1]) | residual activity (Autotaxin (Homo sapiens) [2]) | residual activity (Autotaxin (Homo sapiens) [3])
1 | CCCCCCCCCCCCCCCC(=O)N[C@@H](Cc1ccc(OCc2cc(OCC(F)(F)F)ccn2)cc1)C(O)CP(=O)(O)O (single isomer, unassigned; diastereomer b) | 103% | 83% | 56%
2 | CCCCCCCCCCCCCCCC(=O)N[C@H](Cc1ccc(OCCC)cc1)C(O)CP(=O)(O)O (stereo in doubt) | 80% | 79% | 72%
3 | CCCCCCCCCCCCCCCC(=O)N[C@@H](Cc1ccc(OCc2cc(OCC(F)(F)F)ccn2)cc1)C(O)CP(=O)(O)O (stereo in doubt; f3) | 92% | 80% | 32%
4 | CCCCCCCCCCCCCCCC(=O)N[C@H](Cc1ccc(OCc2ccccn2)cc1)C(O)CP(=O)(O)O (stereo in doubt; f9) | 103% | 76% | 60%
5 | CCCCCCCCCCCCCCCC(=O)N[C@@H](Cc1ccc(OCc2ncc(C)c(OC)c2C)cc1)C(O)CP(=O)(O)O (stereo in doubt; f17) | 27% | 13% | 6%
6 | CCCCCCCCCCCCCCCC(=O)N[C@@H](Cc1ccc(OCc2ncc(C)c(OC)c2C)cc1)C(O)CP(=O)(O)O (stereo in doubt; f18) | 63% | 21% | 8%
7 | CCCCCCCCCCCCCCCC(=O)N[C@H](Cc1ccc(OC)cc1)C(O)CP(=O)(O)O (stereo in doubt; f20) | 95% | 84% | 82%
8 | CCCCCCCCCCCCCCCC(=O)N[C@@H](Cc1ccc(OC)cc1)C(O)CP(=O)(O)O (stereo in doubt; f22) | 84% | 80% | 69%
9 | CCCCCCCCCCCCCCCC(=O)N[C@@H](Cc1ccc(OCCC(C)C)cc1)C(O)CP(=O)(O)O (stereo in doubt; f33) | 104% | 104% | 82%
10 | CCCCCCCCCCCCCCCC(=O)N[C@@H](Cc1ccc(OCCC(C)C)cc1)C(O)CP(=O)(O)O (stereo in doubt; f34) | 106% | 101% | 91%
11 | CCCCCCCCCCCCCCCCCC(=O)N[C@@H](Cc1ccc(OCc2ncc(C)c(OC)c2C)cc1)C(O)CP(=O)(O)O (stereo in doubt; f39) | 101% | 91% | 81%
12 | CCCCCCCC/C=C/CCCCCCCC(=O)N[C@@H](Cc1ccc(OCc2ncc(C)c(OC)c2C)cc1)C(O)CP(=O)(O)O (stereo in doubt; f42) | 77% | 68% | 58%
